Reference: PubChem BioAssay (NCI)
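Interpolation was linear, between the two tested concentrations surrounding the appropriate level; five concentrations were tested over 48 hours in 96-well plates. TGI is the concentration that stops growth completely.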

How the values were obtained:
Experiment in all cases: NCI-60 cell line screen, 48 h
CCRF-CEM leukemia = test system: CCRF-CEM leukemia
TK-10 renal = test system: TK-10 renal
HL-60(TB) leukemia = test system: HL-60(TB) leukemia
SF-268 CNS = test system: SF-268 CNS
SF-295 CNS = test system: SF-295 CNS
SK-OV-3 ovarian = test system: SK-OV-3 ovarian
COLO 205 colon = test system: COLO 205 colon
KM12 colon = test system: KM12 colon
ACHN renal = test system: ACHN renal
OVCAR-4 ovarian = test system: OVCAR-4 ovarian
BT-549 breast = test system: BT-549 breast
RPMI-8226 leukemia = test system: RPMI-8226 leukemia
SW-620 colon = test system: SW-620 colon
NCI-H226 lung = test system: NCI-H226 lung
HT29 colon = test system: HT29 colon
U251 CNS = test system: U251 CNS
NCI-H522 lung = test system: NCI-H522 lung
UACC-257 melanoma = test system: UACC-257 melanoma
PC-3 prostate = test system: PC-3 prostate
UACC-62 melanoma = test system: UACC-62 melanoma
OVCAR-3 ovarian = test system: OVCAR-3 ovarian
SK-MEL-5 melanoma = test system: SK-MEL-5 melanoma
MCF7 breast = test system: MCF7 breast
NCI/ADR-RES ovarian = test system: NCI/ADR-RES ovarian
OVCAR-5 ovarian = test system: OVCAR-5 ovarian
SF-539 CNS = test system: SF-539 CNS
HCT-116 colon = test system: HCT-116 colon
EKVX NSCLC = test system: EKVX NSCLC
SNB-19 CNS = test system: SNB-19 CNS
MOLT-4 leukemia = test system: MOLT-4 leukemia
SR leukemia = test system: SR leukemia
A549 NSCLC = test system: A549 NSCLC
UO-31 renal = test system: UO-31 renal
HCC-2998 colon = test system: HCC-2998 colon
NCI-H460 lung = test system: NCI-H460 lung
RXF 393 renal = test system: RXF 393 renal
786-0 renal = test system: 786-0 renal
MALME-3M melanoma = test system: MALME-3M melanoma
CAKI-1 renal = test system: CAKI-1 renal
MDA-N = test system: MDA-N
DU-145 prostate = test system: DU-145 prostate
NCI-H23 lung = test system: NCI-H23 lung
OVCAR-8 ovarian = test system: OVCAR-8 ovarian
M14 melanoma = test system: M14 melanoma
SN12C renal = test system: SN12C renal
SK-MEL-28 melanoma = test system: SK-MEL-28 melanoma
K-562 leukemia = test system: K-562 leukemia
HOP-62 NSCLC = test system: HOP-62 NSCLC
HCT-15 colon = test system: HCT-15 colon
HOP-92 NSCLC = test system: HOP-92 NSCLC
IGROV1 ovarian = test system: IGROV1 ovarian
LOX IMVI melanoma = test system: LOX IMVI melanoma
SNB-75 CNS = test system: SNB-75 CNS

Measured: TGI

CC[N+](C)(CC)CCNC(=O)C(O)(c1ccccc1)c1ccccc1
> 100 µM: all assays above
